Earlier results on 2 compounds are cited in patent US7098242B2, “Dihydroartemisinin and dihydroartemisitene dimers as anti-cancer and anti-infective agents” (The University of Mississippi, priority 2002, dated 2006).

Data set [1] concerns chloroquine-sensitive and chloroquine-resistant strains of Plasmodium falciparum.
Data set [2] relates to malaria.

As for `C[C@@H]1CC[C@H]2[C@@H](C)C(=O)O[C@@H]3O[C@@]4(C)CC[C@@H]1[C@]32OO4` [artemisinin], the anti-malarial activity result in data set [1] is “anti-malarial activity against both chloroquine-sensitive and chloroquine-resistant strains”.

Consider `C[C@H]1[C@H](OC(=O)CCC(=O)[O-])O[C@@H]2O[C@@]3(C)CC[C@H]4[C@H](C)CC[C@@H]1[C@@]24OO3.[Na+]` [sodium artesunate], for which, in data set [2], the “activity relative to other artemisinin derivatives” value is given as “more activity”.
